The source of these data is ChEMBL document CHEMBL3621051, “Design and synthesis of 4-benzyl-1-(2H)-phthalazinone derivatives as novel androgen receptor antagonists” (Eur J Med Chem, 2015).

This assay deals with Androgen receptor (Mus musculus) (UniProt P19091). Kind of assay: Antagonist activity at wild type AR expressed in mouse SC-3 cells assessed as inhibition of 1 nM DHT-induced cell proliferation after 3 days by WST-8 assay.
Sequence of Androgen receptor (Mus musculus) (P19091 whole entry, looked up): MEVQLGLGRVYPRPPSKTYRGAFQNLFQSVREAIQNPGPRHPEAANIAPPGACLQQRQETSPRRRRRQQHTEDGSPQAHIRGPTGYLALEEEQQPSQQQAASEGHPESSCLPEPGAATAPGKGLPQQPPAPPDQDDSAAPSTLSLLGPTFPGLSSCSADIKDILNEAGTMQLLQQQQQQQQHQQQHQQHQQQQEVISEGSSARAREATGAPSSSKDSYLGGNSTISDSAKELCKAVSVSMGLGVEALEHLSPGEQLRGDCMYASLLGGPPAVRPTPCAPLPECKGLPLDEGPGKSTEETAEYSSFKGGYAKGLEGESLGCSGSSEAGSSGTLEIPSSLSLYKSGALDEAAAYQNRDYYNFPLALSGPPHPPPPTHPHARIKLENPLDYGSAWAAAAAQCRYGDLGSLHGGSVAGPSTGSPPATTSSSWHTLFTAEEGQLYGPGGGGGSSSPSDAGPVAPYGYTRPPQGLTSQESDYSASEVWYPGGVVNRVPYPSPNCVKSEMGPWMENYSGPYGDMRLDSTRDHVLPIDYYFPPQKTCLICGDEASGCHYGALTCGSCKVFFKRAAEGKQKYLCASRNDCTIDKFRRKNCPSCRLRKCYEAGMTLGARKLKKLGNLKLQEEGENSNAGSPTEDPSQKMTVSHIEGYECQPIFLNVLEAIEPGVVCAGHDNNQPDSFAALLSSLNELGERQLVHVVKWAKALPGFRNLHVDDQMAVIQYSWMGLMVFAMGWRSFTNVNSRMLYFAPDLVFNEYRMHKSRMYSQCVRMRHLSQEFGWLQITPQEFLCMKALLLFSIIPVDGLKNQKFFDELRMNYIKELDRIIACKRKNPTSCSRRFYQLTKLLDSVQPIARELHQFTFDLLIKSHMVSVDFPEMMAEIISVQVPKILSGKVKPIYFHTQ
On to `O=[N+]([O-])c1ccc(Cc2nnc(O)c3ccccc23)cc1`, for which the IC50 entry is “Not Active”.
Then `Nc1ccc(Cc2n[nH]c(=O)c3ccccc23)cc1`, with “Not Active”; and `CC(=O)Nc1ccc(Cc2n[nH]c(=O)c3ccccc23)cc1`, with “Not Active”.
Then `O=C(Nc1ccc(Cc2n[nH]c(=O)c3ccccc23)cc1)C(F)(F)F`, with “Not Active”; and `CS(=O)(=O)Nc1ccc(Cc2n[nH]c(=O)c3ccccc23)cc1`, with “Not Active”.
Then `CCN(CC)c1ccc(Cc2n[nH]c(=O)c3ccccc23)cc1`, with “Not Active”.
Take `CCNc1ccc(Cc2n[nH]c(=O)c3ccccc23)cc1`: the IC50 result is “Not Active”.
For the molecule `CN(C)c1ccc(Cc2n[nH]c(=O)c3ccccc23)cc1`, the IC50 result is given as “Not Active”.
The value for `CNc1ccc(Cc2n[nH]c(=O)c3ccccc23)cc1` was “Not Active”; that for `O=C(O)c1ccccc1Cc1n[nH]c(=O)c2ccccc12` was “Not Active”; that for `CC(=O)Nc1ccccc1Cc1n[nH]c(=O)c2ccccc12` was “Not Active”.
Then `CS(=O)(=O)Nc1ccccc1Cc1n[nH]c(=O)c2ccccc12`, with “Not Active”.
